From US20250205356A1, “POLYMER-DRUG CONJUGATES” (PRIMELINK BIOTHERAPEUTICS (SHENZHEN) CO., LTD, priority 2022, published 2025)

Tests used:
MCF-7 cells = assay: In vitro cytotoxic assay of anti-Trop2 ADCs (CellTiter-Glo); assay type: cell-based; conditions: for Bottom (%): curve fit bottom
Method: (§1) In brief, 5,000 cells/well were platted in white clear 96-well assay plates (Cat. No. 6005182, PerkinElmer) (excluding edge wells, which contained medium only) in 90 μL basic culture medium (McCoy's 5a medium for SKBR-3 cells, RPMI-1640 medium for NCI-N87 cells, EMEM medium for MCF-7 cells, and Leibovitz's L-15 medium for MDA-MB-468 cells) containing 10% FBS, I % Penicillin-Streptomycin Solution (BL505A, Biosharp Life Sciences), and 2 mM L-Glutamine (Cat. No. 25030081, ThermoFisher) and were grown at 37° C. in a humidified incubator at 5% CO2 atmosphere. […] After additional 72-hour incubation, plates were removed from incubator and equilibrated to room temperature. After approximately 30 mins, 50 μL of CellTiter-Glo® 2.0 Luminescent Cell Viability Reagent (Cat. No. G7573, Promega) were added to each well. After shaking the plates at 450 rpm for 3 mins followed by 10-min incubation without shaking, luminescence was measure on the Envision plate reader (Equipment No. 2104, PerkinElmer) with integration time of 250 ms per well. Curves of luminescence versus ADC concentration (μM) were fitted with GraphPad Prism Software.

MDA-MB-468 cells = assay: as above; assay type: cell-based
Method: as §1

NCI-N87 cells = assay: as above; assay type: cell-based
Method: as §1

SKBR-3 cells = assay: as above; assay type: cell-based; conditions: for Bottom (%): curve fit bottom; for Top (%): curve fit top
Method: as §1

NCI-N87 cell xenograft = assay: In vivo therapeutic efficacy in NCI-N87 cell xenograft mouse model; parameters: species or system BALB/c female nude mice; conditions: 5 mg/kg, IV, BIW*3
Method: On day 0, NCI-N87 cells (1×10^7 with 1:1 Matrigel) suspended in 0.2 mL PBS supplement with 50% (v/v) matrigel were injected subcutaneously in the right upper flank of 6- to 8-wk-old BALB/c female nude mice (purchased from Beijing Vital River Laboratory Animal Technology Co., Ltd). On day 6, mice were randomized to 8 groups (n=6) when the average tumor volume was 178 mm^3. Treatments were initiated on the very same day (defined as PG-D0). Mice at Trodelvy group received 5.0 mg/kg (i.v., BIW) for 3 wk; mice at the ADC-5 treatment groups were injected with 1.0, 2.5, and 5.0 mg/kg (i.v., BIW) ADC-5 for 3 wk; mice at ADC-6 treatment groups were injected (i.v.) with 1.0 and 2.5 mg/kg ADC-6 weekly (QW) for three doses, or 5.0 mg/kg (single dose at day PG-D0). The tumor volumes and body weights were measured and recorded twice a week. On the termination day 28 (defined as PG-D28), tumor weight were dissected and measured. Tumor growth inhibition rate (%) was calculated as (TVCR−TVTR)/TVCR (%), where TVCR and TVTR are the relative tumor volumes of the vehicle control group and the experimental groups, respectively. Mice were euthanized and deemed to have succumbed to disease once tumors grew greater than 2,500 mm^3. GraphPad Prism 6.0 Software was used for statistical analysis with a one-way ANOVA.

[1] = system: SKBR-3, NCI-N87, MCF-7, and MDA-MB-468 cells; assay: In vitro cytotoxic assays of anti-Trop2 ADCs, statements on all test cell lines; assay type: cell-based; conditions: four Trop-2 expressing cell lines, FIG. 6
Method: Cytotoxicity of exemplary free linker-payloads (Compounds 2, 3 and 4), free Trop2 antibodies (Trop2-1, Trop2-2, Datopotamab, and Sacituzumab), exemplary anti-Trop2 ADCs (ADC-4, ADC-5, ADC-6, ADC-7, ADC-8 and ADC-9) and Trodelvy (an anti-Trop2 ADC approved by FDA) as positive control was evaluated on SKBR-3 cells (Breast cancer, ATCC No. HTB30), NCI-N87 cells (Gastric cancer, ATCC No. CRL-5822), MCF-7 cells (Breast cancer, ATCC No. HTB-22), and MDA-MB-468 cells (Breast cancer, ATCC No. HTB-132).
as §1, with “After” for “After additional 72-hour incubation, plates were removed from incubator and equilibrated to room temperature. After approximately 30 mins, 50 μL of CellTiter-Glo® 2.0 Luminescent Cell Viability Reagent (Cat. No. G7573, Promega) were added to each well. After”

[2] = system: Trop2 positive SKBR-3 cells; assay: Antibody mediated internalization in Trop2 expressing tumor cells, FACS; assay type: cell-based; conditions: 100 nM
Method: The Trop2 positive cell line SKBR-3 cells (Breast cancer, ATCC No. HTB30) were used for the following internalization assay. The culture conditions are the same as in Example 21.
(§2) Cells were harvested with 0.25% Trysin/EDTA (T1320, Solarbio) and adjusted the cell concentration to 4×10^6 cells/mL with 1×PBS containing 1% FBS buffer. 100 μL cells per well were then plated in the 96-well cell culture plates and incubated with Trop2 antibodies Trop2-1, Trop2-2, Datopotamab, and Sacituzumab, as well as exemplary anti-Trop2 ADCs (ADC-4, ADC-5, ADC-6, ADC-7, ADC-8 and ADC-9) at final concentration 100 nM for seven time points (0, 0.5, 2, 4, 8, 16, and 24 hours). The mixtures were incubated at 4° C. in an atmosphere of 5% CO2 in air. At specific time points, cells were immediately washed twice and suspended in 100 μL cold wash buffer containing 2% paraformaldehyde for 30 mins. Cells were washed twice and then incubated with 1×PE anti-human IgG Fc Antibody (Cat. No. 366904, Biolegend) at 4° C. and 5% CO2 for another one hour. After the two-step washing by washing buffer, cells were re-suspended in 100 μL FACS buffer, CytoFlex Cytometry (Beckman Coulter) was used to detect the fluorescent signals of cells. The internalization ratio at several time points were calculated as the missing rate of MFI values at specific time point in that at 0 hours. Curves of internalization rate versus incubation time (hours) were plotted with the Graphpad Prism Software.

[3] = system: HER2 positive SKBR-3 cells; assay: Antibody mediated internalization in HER2 expressing tumor cells, FACS; assay type: cell-based; conditions: 100 nM
Method: (§3) The culture conditions of two cell lines are the same as in Example 18.
as §2, with “(Tl 320,” for “(T1320,”, “100 μL cells per well were then plated in the 96-well cell culture plates and incubated with Trop2 antibodies Trop2-1, Trop2-2, Datopotamab, and Sacituzumab, as well as exemplary anti-Trop2 ADCs (ADC-4, ADC-5, ADC-6, ADC-7, ADC-8 and ADC-9) at final concentration 100 nM for seven time points (0, 0.5, 2, 4, 8, 16, and 24 hours).” left out, “median fluorescence intensity (MFI)” for “MFI”

[4] = system: HER2 positive NCI-N87 cells; assay: as above; assay type: cell-based; conditions: 100 nM
Method: as §3
as §2, with “(Tl 320,” for “(T1320,”, “100 μL cells per well were then plated in the 96-well cell culture plates and incubated with Trop2 antibodies Trop2-1, Trop2-2, Datopotamab, and Sacituzumab, as well as exemplary anti-Trop2 ADCs (ADC-4, ADC-5, ADC-6, ADC-7, ADC-8 and ADC-9) at final concentration 100 nM for seven time points (0, 0.5, 2, 4, 8, 16, and 24 hours).” left out, “median fluorescence intensity (MFI)” for “MFI”

[5] = 72-hour incubation, read-out: ReIC50

Molecule: Trodelvy
- IC50 (MCF-7 cells; [5]): 40.5 nM
- Bottom (%) (MCF-7 cells): 0%
- Top (%) (MCF-7 cells; curve fit top): 35.94%
- IC50 (MDA-MB-468 cells; [5]): 2.33 nM
- Bottom (%) (MDA-MB-468 cells; curve fit bottom): 0%
- Top (%) (MDA-MB-468 cells; curve fit top): 79.13%
- IC50 (NCI-N87 cells; [5]): 5.39 nM
- Bottom (%) (NCI-N87 cells; curve fit bottom): 0%
- Top (%) (NCI-N87 cells; curve fit top): 76.68%
- IC50 (SKBR-3 cells; [5]): 0.846 nM
- Bottom (%) (SKBR-3 cells): 0%
- Top (%) (SKBR-3 cells): 78.16%
- TGI (%) in days after administration, Day 3 (NCI-N87 cell xenograft; Day 3): 44.83%
- TGI (%) in days after administration, Day 7 (NCI-N87 cell xenograft; Day 7): 44.43%
- TGI (%) in days after administration, Day 10 (NCI-N87 cell xenograft; Day 10): 39.67%
- TGI (%) in days after administration, Day 14 (NCI-N87 cell xenograft; Day 14): 42.59%
- TGI (%) in days after administration, Day 17 (NCI-N87 cell xenograft; Day 17): 49.05%
- TGI (%) in days after administration, Day 21 (NCI-N87 cell xenograft; Day 21): 55.07%
- TGI (%) in days after administration, Day 24 (NCI-N87 cell xenograft; Day 24): 55.32%
- TGI (%) in days after administration, Day 28 (NCI-N87 cell xenograft; Day 28): 54.53%

Molecule: Sacituzumab: free Trop2 antibody
- cytotoxic activity on the test cell lines [1]: no target cell killing effect
- Bottom (%) (MCF-7 cells): 0%
- Bottom (%) (SKBR-3 cells): 3.225%
- Top (%) (SKBR-3 cells): 9.741%
- MFI value of internalization assay ([2]; 0 h): 216386
- MFI value of internalization assay ([2]; 0.5 h): 205198.9
- MFI value of internalization assay ([2]; 2 h): 90975.5
- MFI value of internalization assay ([2]; 4 h): 75749.9
- MFI value of internalization assay ([2]; 8 h): 47695.7
- MFI value of internalization assay ([2]; 16 h): 33528.1
- MFI value of internalization assay ([2]; 24 h): 32475

Molecule: T-DM1
- MFI value of internalization assay ([3]; 0 h): 89030.9
- MFI value of internalization assay ([3]; 0.5 h): 54683.9
- MFI value of internalization assay ([3]; 2 h): 51777.7
- MFI value of internalization assay ([3]; 4 h): 39019.6
- MFI value of internalization assay ([3]; 8 h): 31583.1
- MFI value of internalization assay ([3]; 16 h): 29393.7
- MFI value of internalization assay ([3]; 24 h): 20671.3
- MFI value of internalization assay ([4]; 0 h): 455385
- MFI value of internalization assay ([4]; 0.5 h): 452742.7
- MFI value of internalization assay ([4]; 2 h): 475100.1
- MFI value of internalization assay ([4]; 4 h): 369328.5
- MFI value of internalization assay ([4]; 8 h): 345220.2
- MFI value of internalization assay ([4]; 16 h): 362105.3
- MFI value of internalization assay ([4]; 24 h): 317532.7

B1: Datopotamab: native human IgG1 antibody of DS-1062 from Daiichi Sankyo, free antibody control (antibody, chains of the INN, looked up, V domains shown)
VH: QVQLVQSGAEVKKPGASVKVSCKASGYTFTTAGMQWVRQAPGQGLEWMGWINTHSGVPKYAEDFKGRVTISADTSTSTAYLQLSSLKSEDTAVYYCARSGFGSSYWYFDVWGQGTLVTVSS
VL: DIQMTQSPSSLSASVGDRVTITCKASQDVSTAVAWYQQKPGKAPKLLIYSASYRYTGVPSRFSGSGSGTDFTLTISSLQPEDFAVYYCQQHYITPLTFGQGTKLEIK
- MFI value of internalization assay ([2]; 0 h): 237324.4
- MFI value of internalization assay ([2]; 0.5 h): 112896.1
- MFI value of internalization assay ([2]; 2 h): 41192.3
- MFI value of internalization assay ([2]; 4 h): 33418.6
- MFI value of internalization assay ([2]; 8 h): 19928.3
- MFI value of internalization assay ([2]; 16 h): 14134.9
- MFI value of internalization assay ([2]; 24 h): 8497.3
